From patent US11926621B1, “N′-(2-(5-(4-chlorophenyl)-1,3,4-oxadiazol-2-ylthio)acetoxy)benzo[d][1,3]dioxole-5-carboximidamide as an antimicrobial compound” (KING FAISAL UNIVERSITY, priority 2023, dated 2024)

Tests used:
Type in all cases: cell-based
Bacillus cereus = assay: Agar plate disc-diffusion, antibacterial inhibition zone; settings: nutrient agar, 37° C., 48 h
Method: The agar plate disc-diffusion method was applied. […] The discs were then placed onto the surface of agar plates (nutrient agar for bacteria and Sabouraud's dextrose agar for fungi) seeded with the test organism. Each plate contained 15 mL of the agar medium, previously seeded with 0.2 mL of the broth culture of each organism pregrown for 18 hours. The plates were incubated at 37° C. for 48 h, and 72 h for fungi. The inhibition zones were measured in mm. Discs impregnated with DMSO were used as a control, and its inhibition zone was subtracted from the tested compound actual inhibition zone.
(§1) The results of the antimicrobial testing can be observed in Tables 1 and 2, below, using ciprofloxacin as a reference.

Escherichia coli = assay: as above; settings: nutrient agar, 37° C., 48 h
Method: (§2) The agar plate disc-diffusion method was applied. Sterilized filter papers (6 mm in diameter) were wetted with 10 μL of a solution of N′-(2-(5-(4-chlorophenyl)-1,3,4-oxadiazol-2-ylthio)acetoxy)benzo[d][1,3]dioxole-5-carboximidamide (3) to be tested, […], and the discs were allowed to air dry. The discs were then placed onto the surface of agar plates (nutrient agar for bacteria and Sabouraud's dextrose agar for fungi) seeded with the test organism. Each plate contained 15 mL of the agar medium, previously seeded with 0.2 mL of the broth culture of each organism pregrown for 18 hours. The plates were incubated at 37° C. for 48 h, and 72 h for fungi. The inhibition zones were measured in mm. Discs impregnated with DMSO were used as a control, and its inhibition zone was subtracted from the tested compound actual inhibition zone.
as §1

Pseudomonas aeruginosa = assay: as above; settings: nutrient agar, 37° C., 48 h
Method: as §2, §1

Staphylococcus aureus = assay: as above; settings: nutrient agar, 37° C., 48 h
Method: as §2, §1

Aspergillus flavus = assay: Agar plate disc-diffusion, antifungal inhibition zone; settings: Sabouraud's dextrose agar, 72 h
Method: The agar plate disc-diffusion method was applied. Sterilized filter papers (6 mm in diameter) were wetted with 10 μL of a solution of N′-(2-(5-(4-chlorophenyl)-1,3,4-oxadiazol-2-ylthio)acetoxy)benzo[d][1,3]dioxole-5-carboximidamide (3) to be tested, containing 10 mg/mL in DMSO, and the discs were allowed to air dry. The discs were then placed onto the surface of agar plates (nutrient agar for bacteria and Sabouraud's dextrose agar for fungi) seeded with the test organism. Each plate contained 15 mL of the agar medium, previously seeded with 0.2 mL of the broth culture of each organism pregrown for 18 hours. The plates were incubated at 37° C. for 48 h, and 72 h for fungi. The inhibition zones were measured in mm. Discs impregnated with DMSO were used as a control, and its inhibition zone was subtracted from the tested compound actual inhibition zone.
as §1

[1] = test system: Chrysosporium keratinophilum; assay: as above; settings: Sabouraud's dextrose agar, 72 h
Method: as §2, §1

[2] = A = concentration of comp. = 10,000 μL
[3] = B = concentration of comp. = 30.000 μL
[4] = C = concentration of comp. = 50,000 μL

## N/C(=N\OC(=O)CSc1nnc(-c2ccc(Cl)cc2)o1)c1ccc2c(c1)OCO2 [Compound 3, N′-(2-(5-(4-chlorophenyl)-1,3,4-oxadiazol-2-ylthio)acetoxy)benzo[d][1,3]dioxole-5-carboximidamide]
Bacillus cereus; [2]
  inhibition zone, Bacillus Cereus, A: 23 mm
Bacillus cereus; [3]
  inhibition zone, Bacillus Cereus, B: 28 mm
Bacillus cereus; [4]
  inhibition zone, Bacillus Cereus, C: 37 mm
Escherichia coli; [2]
  inhibition zone, Escherichia coli, A: 25 mm
Escherichia coli; [3]
  inhibition zone, Escherichia coli, B: 30 mm
Escherichia coli; [4]
  inhibition zone, Escherichia coli, C: 43 mm
Pseudomonas aeruginosa; [2]
  inhibition zone, Pseudomonas aeruginosa, A: 22 mm
Pseudomonas aeruginosa; [3]
  inhibition zone, Pseudomonas aeruginosa, B: 25 mm
Pseudomonas aeruginosa; [4]
  inhibition zone, Pseudomonas aeruginosa, C: 32 mm
Staphylococcus aureus; [2]
  inhibition zone, Staphylococcus aureus, A: 25 mm
Staphylococcus aureus; [3]
  inhibition zone, Staphylococcus aureus, B: 31 mm
Staphylococcus aureus; [4]
  inhibition zone, Staphylococcus aureus, C: 40 mm
Aspergillus flavus; [2]
  inhibition zone, Aspergillus flavus, A: 25 mm
Aspergillus flavus; [3]
  inhibition zone, Aspergillus flavus, B: 28 mm
Aspergillus flavus; [4]
  inhibition zone, Aspergillus flavus, C: 38 mm
[1]; [2]
  inhibition zone, Chrysosporium keratinophilum, A: 24 mm
[1]; [3]
  inhibition zone, Chrysosporium keratinophilum, B: 29 mm
[1]; [4]
  inhibition zone, Chrysosporium keratinophilum, C: 45 mm
